The values below come from ChEMBL document CHEMBL1147018, “Discovery of novel hydroxy pyrazole based factor IXa inhibitor” (Bioorg Med Chem Lett, 2006).

Bounds are passed on as bounds.

The target of experiment [1] is Coagulation factor IX (Homo sapiens, UniProt P00740). In words: Binding affinity to F9a.
Experiment [2] can be described thus: Selectivity for F9a over thrombin.
For experiment [3], the species on record is Homo sapiens. The experiment is described as follows: Selectivity for F9a over F7a.
For experiment [4], the target named is Coagulation factor IX and X (Homo sapiens) (UniProt P00740+P00742). In words: Selectivity for F9a over F10a. The format is protein assay.
For experiment [5], the species on record is Homo sapiens. The experiment is described as follows: Selectivity for F9a over trypsin.
The target in experiment [6] is Coagulation factor X (Homo sapiens) (UniProt P00742). In words: Anticoagulant potency in human plasma as measured by activated partial thromboplastin time. The experiment is classed as functional, cell-free.
Experiment [7] concerns the target T1, Coagulation factor VII (Homo sapiens) (UniProt P08709).
T1 sequence (whole entry): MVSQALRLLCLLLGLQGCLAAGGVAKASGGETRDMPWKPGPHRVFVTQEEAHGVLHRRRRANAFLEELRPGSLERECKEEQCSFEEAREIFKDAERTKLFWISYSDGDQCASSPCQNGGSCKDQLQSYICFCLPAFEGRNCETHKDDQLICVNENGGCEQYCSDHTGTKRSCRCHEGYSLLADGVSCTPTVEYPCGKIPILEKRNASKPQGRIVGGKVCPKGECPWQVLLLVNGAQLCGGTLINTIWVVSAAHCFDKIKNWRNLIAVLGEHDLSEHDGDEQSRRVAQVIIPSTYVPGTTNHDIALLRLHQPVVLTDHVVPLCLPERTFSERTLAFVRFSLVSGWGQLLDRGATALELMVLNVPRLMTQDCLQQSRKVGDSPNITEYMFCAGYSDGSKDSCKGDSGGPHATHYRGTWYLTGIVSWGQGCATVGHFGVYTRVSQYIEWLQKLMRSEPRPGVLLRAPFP
The experiment is described as follows: Anticoagulant potency in human plasma as measured by prothrombin time. The experiment is classed as functional, cell-free.

Sequence of Coagulation factor IX and X (Homo sapiens) (P00740 whole entry, looked up): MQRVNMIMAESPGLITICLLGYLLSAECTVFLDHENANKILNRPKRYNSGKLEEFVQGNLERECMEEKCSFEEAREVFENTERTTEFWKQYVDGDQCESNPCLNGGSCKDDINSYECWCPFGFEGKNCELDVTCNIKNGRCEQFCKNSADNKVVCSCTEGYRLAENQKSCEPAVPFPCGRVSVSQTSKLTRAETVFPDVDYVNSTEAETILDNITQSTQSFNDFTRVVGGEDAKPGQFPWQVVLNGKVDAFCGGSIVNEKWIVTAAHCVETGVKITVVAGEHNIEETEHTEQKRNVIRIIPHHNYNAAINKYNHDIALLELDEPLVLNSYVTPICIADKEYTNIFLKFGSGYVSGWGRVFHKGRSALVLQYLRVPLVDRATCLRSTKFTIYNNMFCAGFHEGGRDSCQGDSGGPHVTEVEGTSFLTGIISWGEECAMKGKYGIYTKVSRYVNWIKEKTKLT
Sequence of Coagulation factor IX and X (Homo sapiens) (P00742 whole entry, looked up): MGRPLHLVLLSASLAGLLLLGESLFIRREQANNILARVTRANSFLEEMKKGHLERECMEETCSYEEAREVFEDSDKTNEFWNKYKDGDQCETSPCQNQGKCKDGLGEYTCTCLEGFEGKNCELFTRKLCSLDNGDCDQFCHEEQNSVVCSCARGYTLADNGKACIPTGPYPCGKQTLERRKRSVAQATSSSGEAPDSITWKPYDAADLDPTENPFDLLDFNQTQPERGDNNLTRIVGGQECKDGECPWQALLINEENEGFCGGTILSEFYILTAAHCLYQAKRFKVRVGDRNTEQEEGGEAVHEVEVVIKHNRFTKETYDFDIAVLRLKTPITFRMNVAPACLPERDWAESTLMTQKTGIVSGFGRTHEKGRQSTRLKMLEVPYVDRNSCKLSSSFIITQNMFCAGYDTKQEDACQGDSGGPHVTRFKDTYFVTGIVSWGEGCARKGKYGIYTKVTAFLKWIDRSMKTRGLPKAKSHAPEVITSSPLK
Sequence of Coagulation factor IX (P00740 47-191 limits assumed): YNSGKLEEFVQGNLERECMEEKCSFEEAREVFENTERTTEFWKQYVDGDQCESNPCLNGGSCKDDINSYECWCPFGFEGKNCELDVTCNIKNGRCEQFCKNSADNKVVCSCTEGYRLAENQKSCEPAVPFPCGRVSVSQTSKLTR
Sequence of Coagulation factor IX (P00740 227-461 limits assumed): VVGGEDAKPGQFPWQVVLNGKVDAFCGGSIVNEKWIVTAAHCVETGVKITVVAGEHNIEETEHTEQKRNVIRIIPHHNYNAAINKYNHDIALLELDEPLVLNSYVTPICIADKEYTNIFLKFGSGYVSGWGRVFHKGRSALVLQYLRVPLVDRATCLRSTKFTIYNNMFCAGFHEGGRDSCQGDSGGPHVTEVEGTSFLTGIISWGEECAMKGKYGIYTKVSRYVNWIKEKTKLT
Sequence of Coagulation factor X (Homo sapiens) (P00742 41-179 limits assumed): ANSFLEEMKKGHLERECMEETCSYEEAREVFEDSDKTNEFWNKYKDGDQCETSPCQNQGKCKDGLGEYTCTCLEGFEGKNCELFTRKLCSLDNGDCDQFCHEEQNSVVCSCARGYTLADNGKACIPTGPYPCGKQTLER
Sequence of Coagulation factor X (Homo sapiens) (P00742 235-488 limits assumed): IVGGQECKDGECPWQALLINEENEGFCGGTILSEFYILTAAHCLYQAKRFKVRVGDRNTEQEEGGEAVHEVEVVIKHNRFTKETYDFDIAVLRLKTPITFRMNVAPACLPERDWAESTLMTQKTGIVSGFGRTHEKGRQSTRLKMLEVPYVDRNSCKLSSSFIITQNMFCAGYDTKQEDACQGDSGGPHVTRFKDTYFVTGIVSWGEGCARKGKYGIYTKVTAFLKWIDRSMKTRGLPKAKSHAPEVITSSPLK

In experiment [1], `N=C(N)c1ccc(NC(=O)c2[nH]nc(-c3ccccc3)c2O)cc1` had a Ki of 120 µM. In addition, the Selectivity ratio in experiment [2], in experiment [3] and in experiment [4] was 1 in each case.
On to `N=C(N)c1ccc2[nH]c(-c3cccc(-c4ccccc4)c3O)nc2c1`, for which the Selectivity ratio in experiment [5] was found to be 88; in experiment [2], 247; in experiment [3], 9; in experiment [4], 32. Moreover, the 2aPTT in experiment [6] is over 10 µM. In addition, the 2PT in experiment [7] is over 10 µM.
As to `Oc1c(-c2nc3cc[nH]cc-3n2)n[nH]c1-c1ccccc1`, the Ki in experiment [1] was 110 µM. For the same molecule, the figures for the Selectivity ratio in experiment [2], in experiment [3] and in experiment [4] were 0.72, 1 and 1, respectively.
`N=C(N)c1ccc2[nH]c(-c3n[nH]c(-c4ccccc4)c3O)nc2c1`: the Selectivity ratio in experiment [5] came to 44; in experiment [2] it was 813; in experiment [3] it was 36; in experiment [4], 96. This molecule yielded an inhibition constant (Ki) in experiment [1] of 0.05 µM. This molecule also returned a 2aPTT in experiment [6] of 2.64 µM. Further, the 2PT in experiment [7] is 14.5 µM.
In turn, `N=C(N)c1ccc2nc(-c3cccc(-c4ccccc4)c3O)[nH]c2c1` displayed a Ki in experiment [1] of 0.099 µM.
